Counter-ions that a name gives are not always drawn.
Columns and labels:
[1] = target: T1, JAK2 tyrosine kinase (Homo sapiens, UniProt O60674); test: Test 1: inhibitory activity to JAK2 tyrosine kinase (ELISA); assay type: biochemical; details: 25 μM ATP in substrate solution, 30° C. for 1 hour, n=2
T1 construct: purchased Carnabioscience Co
Protocol: Test 1: Test for inhibitory activity to JAK2 and JAK3 tyrosine kinase 1. Preparation of Test Material
The test material was dissolved in dimethylsulfoxide (DMSO) to be 10 mM, and further diluted with DMSO to be 100-fold concentrations for measurement (1000, 300, 100, 30, 10, 3, 1, 0.3, 0.1, 0.03, 0.01 μM). In addition, solutions diluted with an assay buffer up to 20 times were used as solutions of the test material. As a negative control, a solution of DMSO diluted 20 times with an assay buffer was used. As the assay buffer, 15 mM Tris-Cl (pH 7.5), 0.01 v/v % Tween-20, and 1 mM dithiothreitol were used.
2. Measurement of the Activities of JAK2 and JAK3 Tyrosine Kinases
The activity was determined by ELISA. The solution of the test material (10 μl each; n=2) was placed in a streptavidine-coated 96 well plate (DELFIA Strip Plate 8×12 wells; Perkin Elmer), to which 20 μl each of substrate solution (625 nM biotin-labeled peptide substrate, 25 μM ATP, 25 mM MgCl2, 15 mM Tris-Cl (pH 7.5), 0.01 v/v % Tween-20, and 1 mM dithiothreitol), was added and stirred. Finally, 20 μl each of JAK2 tyrosine kinase (Carnabioscience Co.) (diluted to 0.75 nM with assay buffer) or JAK3 tyrosine kinase (Carnabioscience Co.) (diluted to 0.75 nM with assay buffer) was added, stirred and allowed to stand at 30° C. for 1 hour. The plate was washed 4 times with a washing buffer (50 mM Tris-Cl, pH 7.5, 150 mM NaCl, 0.02 v/v % Tween-20), and then a blocking buffer (0.1% Bovine Serum Albumin, 50 mM Tris-Cl, pH 7.5, 150 mM NaCl, 0.02 v/v % Tween-20)(150 μl each) was added for blocking at 30° C. for 30 minutes. Blocking buffer was removed, and there was added 100 μl each of horse radish peroxidase-labeled anti-phosphorylated tyrosin kinase antibody (BD Bioscience Co.) (diluted 10,000 times with blocking buffer). The plate was incubated at 30° C. for 30 minutes and then washed 4 times with a washing buffer, and 100 μl each of 3,3′,5,5′-tetramethylbenzidine (Sigma-Aldrich Co.) was added to develop color for 10 minutes. 0.1 M sulfuric acid (100 μl each) was added to stop the reaction. The absorbance was measured by means of a micro-plate reader (BIO-RAD; Model 3550) at 450 nm.
3. Analysis of the Results of the Measurement
The measured absorbance was subjected to a non-linear regression analysis by means of a SAS system (SAS Institute Inc.), and the concentration (IC50) of the test material which inhibited 50% of the activity of each tyrosine kinase was estimated.

[2] = target: T2, JAK3 tyrosine kinase (Homo sapiens, UniProt P52333); test: Test 1: inhibitory activity to JAK3 tyrosine kinase (ELISA); assay type: biochemical; details: 25 μM ATP in substrate solution, 30° C. for 1 hour, n=2
T2 construct: purchased Carnabioscience Co
T2 sequence (P52333 1-1124): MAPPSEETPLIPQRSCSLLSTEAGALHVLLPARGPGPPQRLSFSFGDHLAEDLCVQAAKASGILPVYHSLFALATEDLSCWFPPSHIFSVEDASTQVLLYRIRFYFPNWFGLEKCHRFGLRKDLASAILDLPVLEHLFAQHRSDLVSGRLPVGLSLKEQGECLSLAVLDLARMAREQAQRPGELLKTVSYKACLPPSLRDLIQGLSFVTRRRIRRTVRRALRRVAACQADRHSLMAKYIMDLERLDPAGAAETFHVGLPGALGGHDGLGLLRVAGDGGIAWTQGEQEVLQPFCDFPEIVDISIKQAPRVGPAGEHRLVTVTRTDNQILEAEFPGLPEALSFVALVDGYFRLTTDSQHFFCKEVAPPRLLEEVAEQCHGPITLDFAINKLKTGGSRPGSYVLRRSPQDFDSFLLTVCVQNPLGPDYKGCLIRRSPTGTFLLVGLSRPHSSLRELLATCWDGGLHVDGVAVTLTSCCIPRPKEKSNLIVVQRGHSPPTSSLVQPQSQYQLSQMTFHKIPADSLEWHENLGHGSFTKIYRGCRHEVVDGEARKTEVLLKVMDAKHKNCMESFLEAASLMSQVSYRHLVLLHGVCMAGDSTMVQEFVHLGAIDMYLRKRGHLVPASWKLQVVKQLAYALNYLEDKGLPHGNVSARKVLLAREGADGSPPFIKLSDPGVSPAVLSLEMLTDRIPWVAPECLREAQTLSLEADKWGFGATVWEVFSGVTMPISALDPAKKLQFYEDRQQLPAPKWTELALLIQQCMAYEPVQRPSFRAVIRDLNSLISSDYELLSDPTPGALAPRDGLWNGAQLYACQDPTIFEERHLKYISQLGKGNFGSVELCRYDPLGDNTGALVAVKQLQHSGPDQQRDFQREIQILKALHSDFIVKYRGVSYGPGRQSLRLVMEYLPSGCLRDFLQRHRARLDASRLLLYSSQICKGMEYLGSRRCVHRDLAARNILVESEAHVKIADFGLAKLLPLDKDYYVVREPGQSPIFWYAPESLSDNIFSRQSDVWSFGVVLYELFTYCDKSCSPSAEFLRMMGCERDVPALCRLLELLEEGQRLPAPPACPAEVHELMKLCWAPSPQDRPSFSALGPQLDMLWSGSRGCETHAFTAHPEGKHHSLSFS
Protocol: Test 1: Test for inhibitory activity to JAK2 and JAK3 tyrosine kinase 1. […] The test material was dissolved in dimethylsulfoxide (DMSO) to be 10 mM, and further diluted with DMSO to be 100-fold concentrations for measurement (1000, 300, 100, 30, 10, 3, 1, 0.3, 0.1, 0.03, 0.01 μM). In addition, solutions diluted with an assay buffer up to 20 times were used as solutions of the test material. As a negative control, a solution of DMSO diluted 20 times with an assay buffer was used. […] 2. Measurement of the Activities of JAK2 and JAK3 Tyrosine Kinases The activity was determined by ELISA. […] The absorbance was measured by means of a micro-plate reader (BIO-RAD; Model 3550) at 450 nm. 3. Analysis of the Results of the Measurement The measured absorbance was subjected to a non-linear regression analysis by means of a SAS system (SAS Institute Inc.), and the concentration (IC50) of the test material which inhibited 50% of the activity of each tyrosine kinase was estimated.

T1 sequence (O60674 whole entry): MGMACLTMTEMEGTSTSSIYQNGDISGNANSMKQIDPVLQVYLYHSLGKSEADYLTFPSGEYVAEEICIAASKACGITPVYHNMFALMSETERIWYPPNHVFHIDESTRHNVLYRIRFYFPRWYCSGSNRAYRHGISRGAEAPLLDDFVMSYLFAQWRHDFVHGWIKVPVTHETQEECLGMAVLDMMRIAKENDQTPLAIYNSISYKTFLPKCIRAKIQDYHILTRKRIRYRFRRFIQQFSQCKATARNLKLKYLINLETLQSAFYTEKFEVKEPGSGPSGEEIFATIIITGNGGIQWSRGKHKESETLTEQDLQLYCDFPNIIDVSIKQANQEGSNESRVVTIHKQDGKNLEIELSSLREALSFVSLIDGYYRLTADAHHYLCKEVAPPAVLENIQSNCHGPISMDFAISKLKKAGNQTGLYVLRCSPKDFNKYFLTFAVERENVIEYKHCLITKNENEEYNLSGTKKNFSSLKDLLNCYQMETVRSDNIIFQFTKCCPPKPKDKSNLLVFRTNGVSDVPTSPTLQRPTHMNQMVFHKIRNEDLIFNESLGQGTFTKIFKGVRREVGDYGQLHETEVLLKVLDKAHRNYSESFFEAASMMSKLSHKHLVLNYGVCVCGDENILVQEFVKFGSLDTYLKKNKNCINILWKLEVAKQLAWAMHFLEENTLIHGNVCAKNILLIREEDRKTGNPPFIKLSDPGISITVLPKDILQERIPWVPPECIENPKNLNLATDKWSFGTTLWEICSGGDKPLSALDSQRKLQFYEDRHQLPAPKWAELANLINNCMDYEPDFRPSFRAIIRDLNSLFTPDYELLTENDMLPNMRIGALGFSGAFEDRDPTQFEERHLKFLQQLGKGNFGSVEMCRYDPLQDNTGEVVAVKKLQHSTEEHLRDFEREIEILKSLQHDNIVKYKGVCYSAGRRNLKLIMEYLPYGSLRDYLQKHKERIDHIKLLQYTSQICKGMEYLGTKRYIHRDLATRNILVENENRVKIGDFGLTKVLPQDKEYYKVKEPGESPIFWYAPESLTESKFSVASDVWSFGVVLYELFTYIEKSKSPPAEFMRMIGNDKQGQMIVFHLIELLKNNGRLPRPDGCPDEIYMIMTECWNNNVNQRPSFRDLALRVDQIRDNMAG

Row | IC50 [1] [nM] | IC50 [2] [nM] | Structure (SMILES)
1 | 3 | 500 | CCCCNC(=O)c1cc(Nc2cnccn2)nc(N[C@@H](C)c2ccc(F)cc2)c1 [Example 169, (S)—N-Butyl-2-[1-(4-fluorophenyl)ethylamino]-6-(pyrazin-2-ylamino) isonicotinamide]
2 | 1.3 | 71 | C[C@H](Nc1nc(Nc2cnccn2)cc(-c2cccnc2)n1)c1ccc(F)cc1 [Example 13, (S)—N^2-[1-(4-Fluorophenyl)ethyl]-N^4-(pyrazin-2-yl)-6-(pyridin-3-yl)pyrimidine-2,4-diamine]
3 | 0.62 | 62 | C[C@H](Nc1cc(-c2cccnc2)cc(Nc2cnccn2)n1)c1ccc(F)cc1 [Example 5, (S)—N^2′-[1-(4-Fluorophenyl)ethyl]-N^6′-(pyrazin-2-yl)-3,4′-bipyridine-2′,6′-diamine hydrochloride]
4 | 2.5 | 440 | C[C@H](Nc1nc(Nc2cnccn2)cc(-c2cccc(S(C)(=O)=O)c2)n1)c1ccc(F)cc1 [Example 35, (S)—N^2-[1-(4-Fluorophenyl)ethyl]-6-[3-(methylsulfonyl)phenyl]-N^4-(pyrazin-2-yl) yrimidine-2,4-diamine hydrochloride]
5 | 2.3 | 85 | CC(=O)N[C@H]1CCN(c2cc(Nc3cnccn3)nc(N[C@@H](C)c3ccc(F)cc3)c2)C1 [Example 38, N-{(S)-1-[2-{[(S)-1-(4-Fluorophenyl)ethyl]amino}-6-(pyrazin-2-ylamino)pyridin-4-yl]pyrrolidin-3-yl}acetamide hydrochloride]
6 | 9.8 | 460 | C[C@H](Nc1nc(Nc2cnccn2)cc(-c2ccc3c(c2)OCO3)n1)c1ccc(F)cc1 [Example 92, (S)-6-(Benzo[d]1,3-dioxol-5-yl)-N^2-[1-(4-fluorophenyl)ethyl]-N^4-(pyrazin-2-yl)pyrimidine-2,4-diamine hydrochloride]
7 | 0.97 | 100 | C[C@H](Nc1nc(Nc2cnccn2)cc(-c2ccnc(O)c2)n1)c1ccc(F)cc1 [Example 25, (S)-4-{2-[1-(4-Fluorophenyl)ethylamino]-6-(pyrazin-2-ylamino)pyrimidin-4-yl}pyridin-2-ol]
8 | 3.7 | 93 | CCn1cc(-c2cc(Nc3cnccn3)nc(N[C@@H](C)c3ccc(F)cc3)c2)cn1 [Example 46, (S)-4-(1-Ethyl-1H-pyrazol-4-yl)-N^2-[1-(4-fluorophenyl)ethyl]-N^6-(pyrazin-2-yl)pyridine-2,6-diamine]
9 | 0.41 | – | CC(C)C1(O)CN(c2cc(Nc3cnccn3)nc(N[C@@H](C)c3ccc(F)cc3)n2)C1 [Example 201, (S)-1-{2-[1-(4-Fluorophenyl)ethylamino]-6-(pyrazin-2-ylamino)pyrimidin-4-yl}-3-isopropylazetidin-3-ol hydrochloride]
10 | – | 230 | C[C@H](Nc1cc(C(=O)N2CCOCC2)cc(Nc2cnccn2)n1)c1ccc(F)cc1 [Example 161, (S)-{2-[1-(4-Fluorophenyl)ethylamino]-6-(pyrazin-2-ylamino)pyridin-4-yl}(morpholino)methanone]
11 | – | 2100 | C[C@H](Nc1nc(C#N)cc(Nc2cnccn2)n1)c1ccc(F)cc1 [Example 143, (S)-2-[1-(4-Fluorophenyl)ethylamino]-6-(pyrazin-2-ylamino)pyrimidine-4-carbonitrile]
12 | – | 93 | CCNC(=O)c1cc(Nc2cnccn2)nc(N[C@@H](C)c2ccc(F)cc2)c1 [Example 152, (S)—N-Ethyl-2-[1-(4-fluorophenyl)ethylamino]-6-(pyrazin-2-ylamino) isonicotinamide]
13 | 0.96 | – | C[C@H](Nc1nc(Nc2cnccn2)cc(N2CC(C(=O)N(C)C)C2)n1)c1ccc(F)cc1 [Example 176, (S)-1-{2-[1-(4-Fluorophenyl)ethylamino]-6-(pyrazin-2-ylamino)pyrimidin-4-yl}-N,N-dimethylazetidin-3-carboxamide]
14 | – | 580 | C[C@H](Nc1nc(Nc2cnccn2)cc(N2CC[C@H]2C(N)=O)n1)c1ccc(F)cc1 [Example 156, (S)-1-{2-[(S)-1-(4-Fluorophenyl)ethylamino]-6-(pyrazin-2-ylamino)pyrimidin-4-yl}azetidine-2-carboxamide]
15 | – | 290 | C[C@@H](c1ccc(F)cc1)N(C)c1cc(-c2cnn(C)c2)cc(Nc2cnccn2)n1 [Example 139, (S)—N^2-[1-(4-Fluorophenyl)ethyl]-N^2-methyl-4-(1-methyl-1H-pyrazol-4-yl)-N^6-(pyrazin-2-yl)pyridine-2,6-diamine hydrochloride]
16 | – | 150 | C[C@H](Nc1cc(C(=O)NCCN(C)C)cc(Nc2cnccn2)n1)c1ccc(F)cc1 [Example 150, (S)—N-[2-(Dimethylamino)ethyl]-2-[1-(4-fluorophenyl)ethylamino]-6-(pyrazin-2-ylamino)isonicotinamide]
17 | – | 36 | C[C@H](Nc1cc(C(N)=O)cc(Nc2cnccn2)n1)c1ccc(F)cc1 [Example 145, (S)-2-[1-(4-Fluorophenyl)ethylamino]-6-(pyrazin-2-ylamino)isonicotinamide]
18 | – | 470 | C[C@H](Nc1cc(C(=O)N2CCN(C)CC2)cc(Nc2cnccn2)n1)c1ccc(F)cc1 [Example 164, (S)-{2-[1-(4-Fluorophenyl)ethylamino]-6-(pyrazin-2-ylamino)pyridin-4-yl}(4-methylpiperazin-1-yl)methanone hydrochloride]
19 | – | 100 | CNC(=O)c1cc(Nc2cnccn2)nc(N[C@@H](C)c2ccc(F)cc2)c1 [Example 160, (S)-2-[1-(4-Fluorophenyl)ethylamino]-N-methyl-6-(pyrazin-2-ylamino)isonicotinamide]
20 | – | 340 | C[C@H](Nc1cc(C(=O)N2CCCC2)cc(Nc2cnccn2)n1)c1ccc(F)cc1 [Example 154, (S)-{2-[1-(4-Fluorophenyl)ethylamino]-6-(pyrazin-2-ylamino)pyridin-4-yl}(pyrrolidin-1-yl)methanone]
